Measurements: BindingDB's records for doi:10.1021/jm00403a014 (National Institute of Diabetes, Digestive and Kidney …, 1988)

Experiment: Binding affinity to sigma site of Phencyclidine receptor by displacement of [3H]-(+)-SKF- 10,047

In the case of `c1ccc(C2(N3CCCCC3)CCCCC2)cc1`, the Ki is reported as 530 nM.
